In PMC7557402, “Evaluation of Nucleoside Analogs as Antimicrobials Targeting Unique Enzymes in Borrelia burgdorferi” (Pathogens, 2020):

Legend:
Bgp [1] = biological target: T1, Bgp (Borreliella burgdorferi, UniProt Q9F952); assay: MTAN inhibition constants (competitive inhibition of MTA hydrolysis); assay type: biochemical, Borrelia burgdorferi; conditions: MTA 100 µM, inhibitor 0 to 100 µM, read-out: Ki (inhibition constant)
Description: (§1) The inhibited velocity (Vo’) and uninhibited velocity (Vo) values were determined, and the ratio of Vo’/Vo plotted as a function of inhibitor concentration. Ki values were calculated from these plots by fitting the data to the equation for competitive inhibition using GraphPad Prism:(2) Vo^′/Vo=Km+[S]/Km+[S]+(Km[I]/Ki)

[2] = system: Borrelia MTANs (Bgp, MtnN, Pfs); assay: MTAN activity/kinetics, across the nucleosidases; assay type: biochemical; conditions: range over the B. burgdorferi nucleosidases
Description: (§2) Enzyme specific activities were determined using previously reported optimal pH conditions (50 mM sodium phosphate, pH = 7, for Bgp, MtnN; 50 mM sodium phosphate-citrate, pH = 5, for Pfs) and a spectrophotometric activity assay that measures the decrease in UV absorbance at 275 nm that occurs when MTA is cleaved to 5-methylthioribose and adenine (ε275 = 1.6 mM^−1cm^−1). The extinction coefficients for cleavage of other nucleosides were experimentally validated and found to be the same for MSeA, FSBA, and IADO (ε275 = 1.6 mM^−1cm^−1). Due to the added UV absorbance imparted by the 5′ purine group found in PurTA, the enzyme reactions were followed spectrophotometrically at 260 nm using the experimentally determined extinction coefficient of ε260 = 5.6 mM^−1cm^−1. Enzyme specific activities for MTA were generally 1–2 U/mg (1 U = µmol MTA hydrolyzed/min). The enzyme specific activities for other nucleosides were determined and reported in U/mg and as the % max specific activity (relative to MTA at 100%).
(§3) Kinetic constants have been previously reported for MTA [18]. As MSeA was also an efficient substrate for the B. burgdorferi nucleosidases, kinetic constants were determined using the activity assay described above, varying the nucleoside concentrations from 1 to 20 µM, and fitting the data on substrate-velocity plots to the Michaelis–Menten equation using GraphPad Prism (version 6):(1) Vo=Vmax[S]/Km+[S]
as §1, with “For the other compounds, inhibition constants (Ki’s) were determined as previously described, using an MTA concentration of 100 µM and varying the inhibitor concentration from 0 to 100 µM. The” for “The”

MtnN = MtnN (Borreliella burgdorferi, UniProt O50860); assay: MTAN spectrophotometric activity assay (specific activity, Km); assay type: biochemical, Borrelia burgdorferi
Description: (§4) Recombinant MTANs were expressed and purified as previously described. Briefly, overnight 10 mL cultures of recombinant E. coli BL21(DE3) pLysS cells containing engineered pET30a expression plasmids for Bgp, MtnN or Pfs were grown at 37 °C with shaking (150 rpm) in LB broth supplemented with 50 µg/mL kanamycin and 0.5% glucose. The culture was diluted 1:50 in fresh medium and incubated at 37 °C with shaking (150 rpm) until the absorbance (600 nm) reached 0.4–0.6. Protein expression was induced with the addition of isopropyl β-D-1-thiogalactopyranoside (IPTG) to a final concentration of 1 mM and continued overnight incubation with shaking at 30 °C. Cells were harvested by centrifugation (10,000× g/15 min), and the pellet was washed once with ice-cold lysis buffer (50 mM sodium phosphate, pH = 8.0, 300 mM NaCl, 10 mM imidazole, 2mM β mercaptoethanol). Harvested cell pellets were resuspended in 10 mL fresh lysis buffer and lysed by sonication on ice using a Misonix Sonicator 300 (power setting 7, pulse 30 s, 1 min cooling with total sonication for 2.5 min). The cell lysates were centrifuged at 10,000× g for 15 min at 4 °C to remove debris, and the lysate was further filtered through a […] syringe filter to obtain a clear extract. Recombinant N-terminal hexahistidine tagged proteins were purified from the lysate using HisPur™ affinity columns (Thermo Scientific) according to the manufacturer’s specifications, and specifically eluted with 250 mM imidazole containing buffer (pH = 7). Eluted materials were analyzed by SDS-PAGE and Coomassie blue staining and found to be >95% homogeneous. Enzyme concentrations were determined using UV scans on a Cary100 spectrophotometer (Agilent) to determine the absorbance at 280 nm and applying extinction coefficients (0.1%) of 0.594 (Bgp), 0.637 (MtnN), and 0.404 (Pfs). Enzyme stocks (1 mg/mL) were prepared in 20% glycerol and stored at −80 °C.
as §2, §3

Pfs = Pfs (Borreliella burgdorferi, UniProt O50162); assay: as above; assay type: biochemical, Borrelia burgdorferi
Description: as §4, §2, §3

Bgp [3] = biological target: T1, Bgp; assay: as above; assay type: biochemical, Borrelia burgdorferi
Description: as §4, §2, §3

[4] = pH 7, 1 U = 1 µmol MTA hydrolyzed per minute

T1 sequence (Q9F952 entry or part of it): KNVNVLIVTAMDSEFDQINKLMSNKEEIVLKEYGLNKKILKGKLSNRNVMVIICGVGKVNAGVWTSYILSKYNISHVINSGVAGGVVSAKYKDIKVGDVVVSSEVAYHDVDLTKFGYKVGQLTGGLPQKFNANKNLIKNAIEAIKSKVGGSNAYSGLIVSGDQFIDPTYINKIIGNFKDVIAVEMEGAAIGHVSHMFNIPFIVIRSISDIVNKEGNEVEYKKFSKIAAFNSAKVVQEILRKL
Sequence of MtnN (O50860 entry or part of it): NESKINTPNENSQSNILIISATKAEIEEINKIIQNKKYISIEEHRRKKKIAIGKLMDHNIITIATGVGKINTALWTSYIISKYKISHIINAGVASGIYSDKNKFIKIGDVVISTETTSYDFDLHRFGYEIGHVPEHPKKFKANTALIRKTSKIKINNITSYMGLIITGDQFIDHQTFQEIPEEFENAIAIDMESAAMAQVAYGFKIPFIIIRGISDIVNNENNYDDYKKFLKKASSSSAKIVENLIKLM
Sequence of Pfs (O50162 entry or part of it): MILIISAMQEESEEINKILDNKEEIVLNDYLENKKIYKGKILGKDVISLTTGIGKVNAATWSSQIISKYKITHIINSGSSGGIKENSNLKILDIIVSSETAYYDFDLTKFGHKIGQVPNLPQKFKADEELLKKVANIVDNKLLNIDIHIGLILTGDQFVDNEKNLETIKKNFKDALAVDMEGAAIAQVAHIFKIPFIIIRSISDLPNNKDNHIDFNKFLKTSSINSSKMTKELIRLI

Nc1ncnc2c1ncn2[C@@H]1O[C@H](CI)[C@@H](O)[C@H]1O [IADO, 5′-deoxy-5′-iodoadenosine]
Ki (Bgp [1]): 630 nM
activity relative to that found for MTA [2]: 3–6%
Specific Activity (MtnN; [4]): 0.03 U/mg
% Max Specific Activity (MtnN; relative to MTA as a substrate): 3%
Specific Activity (Pfs; pH 5, 1 U = 1 µmol MTA hydrolyzed per minute): 0.11 U/mg
% Max Specific Activity (Pfs; relative to MTA as a substrate): 6%
Specific Activity (Bgp [3]; [4]): 0.04 U/mg
% Max Specific Activity (Bgp [3]; relative to MTA as a substrate): 4%
